Laboratory results published in ChEMBL document CHEMBL3784945, “Isoindolinone compounds active as Kv1.5 blockers identified using a multicomponent reaction approach” (Bioorg Med Chem Lett, 2016).
≈ marks a conversion by molar mass, not a printed value.

Experiments:
[1] = Lipophilicity, log D of the compound by HPLC analysis; assay type: physicochemical
[2] = (§1) Intrinsic clearance in human liver microsomes; assay type: ADME; details: liver microsomes, read-out: CLH
[3] = target: Voltage-gated inwardly rectifying potassium channel KCNH2 (Homo sapiens, UniProt Q12809); assay: Inhibition of human ERG
[4] = test system: Mus musculus; assay: In vivo inhibition of Kv1.5 channel in BaLBc mouse assessed as unbound steady-state plasma concentration required to increase QT-interval by 30% at 20 umol/kg,iv for 15 mins; assay type: functional
[5] = target: T1, Potassium voltage-gated channel subfamily A member 5 (Homo sapiens, UniProt P22460); assay: Inhibition of human Kv1.5 channel by QPatch-clamp method
[6] = test system: Liver microsome; assay: as §1; assay type: ADME; details: microsomes
[7] = Solubility of the compound; assay type: physicochemical
[8] = target: Cytochrome P450 3A4 (Homo sapiens, UniProt P08684); assay: Inhibition of CYP3A4 (unknown origin); assay type: ADME
[9] = Absolute bioavailability in dog; assay type: ADME, organism-based, Canis lupus familiaris; details: in vivo
[10] = Absolute bioavailability in rat; assay type: ADME, organism-based; details: in vivo
[11] = Clearance in iv dosed rat; assay type: ADME, organism-based; details: in vivo
[12] = Clearance in iv dosed dog; assay type: ADME, organism-based, Canis lupus familiaris; details: in vivo
[13] = target: T1, Potassium voltage-gated channel subfamily A member 5; assay: Inhibition of human Kv1.5 channel by Rb-flux assay
[14] = Solubility of crystalline form of compound; assay type: physicochemical

T1 sequence (P22460 whole entry): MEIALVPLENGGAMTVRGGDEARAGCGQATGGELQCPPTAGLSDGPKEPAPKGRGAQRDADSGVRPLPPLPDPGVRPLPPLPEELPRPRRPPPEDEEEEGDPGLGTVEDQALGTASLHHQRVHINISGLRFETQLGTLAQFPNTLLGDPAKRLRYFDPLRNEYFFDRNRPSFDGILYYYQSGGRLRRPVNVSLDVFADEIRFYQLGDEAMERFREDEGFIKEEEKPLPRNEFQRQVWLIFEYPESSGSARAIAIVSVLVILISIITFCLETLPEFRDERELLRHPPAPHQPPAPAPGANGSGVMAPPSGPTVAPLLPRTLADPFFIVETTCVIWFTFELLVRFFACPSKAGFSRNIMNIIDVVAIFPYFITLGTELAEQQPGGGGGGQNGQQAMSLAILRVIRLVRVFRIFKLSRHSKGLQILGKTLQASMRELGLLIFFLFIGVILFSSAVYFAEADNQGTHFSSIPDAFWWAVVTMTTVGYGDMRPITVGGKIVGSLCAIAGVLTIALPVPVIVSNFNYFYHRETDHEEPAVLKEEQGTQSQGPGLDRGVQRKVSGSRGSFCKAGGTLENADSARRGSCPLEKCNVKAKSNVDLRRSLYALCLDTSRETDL
Chain of Voltage-gated inwardly rectifying potassium channel KCNH2 (Q12809 whole entry): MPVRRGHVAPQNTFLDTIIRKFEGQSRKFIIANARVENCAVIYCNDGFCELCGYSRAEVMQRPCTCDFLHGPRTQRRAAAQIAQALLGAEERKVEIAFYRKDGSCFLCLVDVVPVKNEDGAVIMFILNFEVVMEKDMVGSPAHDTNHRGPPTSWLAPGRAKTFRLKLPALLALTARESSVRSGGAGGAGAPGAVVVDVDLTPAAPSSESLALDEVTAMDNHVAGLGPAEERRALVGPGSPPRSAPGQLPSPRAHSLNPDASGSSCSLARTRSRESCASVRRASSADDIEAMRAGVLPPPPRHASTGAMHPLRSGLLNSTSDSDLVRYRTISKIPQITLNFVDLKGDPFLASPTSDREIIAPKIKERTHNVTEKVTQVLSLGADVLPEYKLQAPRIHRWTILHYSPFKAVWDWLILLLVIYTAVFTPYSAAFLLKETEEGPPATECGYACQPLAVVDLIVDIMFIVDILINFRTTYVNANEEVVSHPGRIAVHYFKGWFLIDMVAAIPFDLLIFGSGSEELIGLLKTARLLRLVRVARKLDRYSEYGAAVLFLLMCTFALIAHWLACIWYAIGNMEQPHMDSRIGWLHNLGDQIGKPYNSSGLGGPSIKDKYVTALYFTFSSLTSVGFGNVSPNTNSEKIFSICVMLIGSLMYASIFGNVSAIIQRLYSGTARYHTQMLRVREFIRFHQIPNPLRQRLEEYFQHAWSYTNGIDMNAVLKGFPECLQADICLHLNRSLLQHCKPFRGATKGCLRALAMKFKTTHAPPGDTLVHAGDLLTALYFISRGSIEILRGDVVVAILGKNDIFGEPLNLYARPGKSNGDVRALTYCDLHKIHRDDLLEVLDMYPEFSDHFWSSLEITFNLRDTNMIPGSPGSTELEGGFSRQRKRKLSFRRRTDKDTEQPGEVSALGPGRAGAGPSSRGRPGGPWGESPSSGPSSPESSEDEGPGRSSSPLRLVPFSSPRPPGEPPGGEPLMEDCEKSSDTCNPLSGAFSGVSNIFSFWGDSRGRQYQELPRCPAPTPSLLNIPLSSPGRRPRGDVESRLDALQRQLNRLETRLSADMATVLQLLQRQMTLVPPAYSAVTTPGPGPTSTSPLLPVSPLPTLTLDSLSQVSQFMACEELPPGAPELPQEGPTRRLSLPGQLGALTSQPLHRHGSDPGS
Chain of Cytochrome P450 3A4 (P08684 whole entry): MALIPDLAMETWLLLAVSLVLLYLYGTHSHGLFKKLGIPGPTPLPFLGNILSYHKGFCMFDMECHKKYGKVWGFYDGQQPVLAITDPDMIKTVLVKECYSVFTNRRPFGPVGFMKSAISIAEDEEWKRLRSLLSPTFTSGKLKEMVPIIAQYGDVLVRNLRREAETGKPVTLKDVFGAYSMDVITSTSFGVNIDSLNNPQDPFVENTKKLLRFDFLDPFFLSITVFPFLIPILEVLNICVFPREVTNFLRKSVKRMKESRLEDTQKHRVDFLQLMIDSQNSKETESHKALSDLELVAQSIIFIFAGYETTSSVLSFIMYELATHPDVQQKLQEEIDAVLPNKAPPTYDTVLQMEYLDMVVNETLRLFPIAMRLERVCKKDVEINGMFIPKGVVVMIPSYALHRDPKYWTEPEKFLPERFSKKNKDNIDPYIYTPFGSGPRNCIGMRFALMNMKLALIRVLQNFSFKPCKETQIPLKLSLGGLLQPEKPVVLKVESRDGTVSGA

SMILES | logD ([1]; read-out: logD) | microsomal CLint [2] | IC50 [3] | IC50 [5] | IC50 [13] | also measured
CC(c1ccccc1)N1C(=O)c2ccccc2C1C(=O)NCc1ccccc1 (racemic) | 3.5 | > 100 µL/min/mg | > 33 µM | – | – | –
CC(C)(C)NC(=O)C1c2ccccc2C(=O)N1Cc1cc(F)ccc1-c1ccccc1 (single isomer, unassigned; enantiomer 1) | 5.2 | 102 µL/min/mg | > 33 µM | 1.4 µM | – | Activity [4]: 0.079 µM
CC(C)(C)NC(=O)C1c2ccccc2C(=O)N1Cc1cc(F)ccc1-c1ccc(F)cc1 (single isomer, unassigned; enantiomer 2) | – | – | > 33 µM | 0.9 µM | – | Activity [4]: 0.28 µM; CLH [6]: 41 µL/min/mg
CC(C)(CN1C(=O)c2ccccc2C1C(=O)NCCCF)c1ccc(Cl)cc1 (single isomer, unassigned; enantiomer 1) | 4.2 | 14 µL/min/mg | > 33 µM | 0.7 µM | – | solubility [7]: 83 µM (≈ 33.4 µg/mL); Activity [4]: 0.4 µM; IC50 [8]: > 50 µM; bioavailability [9]: 41%; bioavailability [10]: 58%; clearance [11]: 4.7 mL/min/kg; clearance [12]: 18 mL/min/kg
COc1ccc2c(c1C)C(=O)N(Cc1ccccc1-c1ccccc1)C2C(=O)NC(C)(C)C (racemic) | 5.6 | > 100 µL/min/mg | – | 0.8 µM | – | –
CCCCNC(=O)C1c2ccccc2C(=O)N1CC(C)(O)c1ccc(Cl)cc1 (centres undefined) | 3.5 | 64 µL/min/mg | – | 1.2 µM | – | –
CC(C)(CN1C(=O)c2ccccc2C1C(=O)NCCCF)c1ccc(Cl)cc1 (single isomer, unassigned; enantiomer 2) | – | – | – | 1 µM | – | CLH [6]: 19 µL/min/mg
CC(C)(C)NC(=O)C1c2ccccc2C(=O)N1Cc1ccccc1-c1ccccc1 (single isomer, unassigned; enantiomer 2) | – | – | > 33 µM | – | – | –
Cc1c(OS(C)(=O)=O)ccc2c1C(=O)N(Cc1ccccc1-c1ccccc1)C2C(=O)NC(C)(C)C (racemic) | 5.1 | > 100 µL/min/mg | > 32 µM | – | 10.5 µM | –
COCCOCCNC(=O)C1c2cc(F)ccc2C(=O)N1CC(C)c1ccc(Cl)cc1 (racemic) | 3.6 | > 100 µL/min/mg | > 33 µM | – | > 32 µM | –
CC(C)(C)NC(=O)C1c2ccccc2C(=O)N1Cc1ccccc1-c1ccc(F)cc1 (centres undefined) | 4.8 | 53 µL/min/mg | 56 µM | 6 µM | – | –
CC(C)(C)NC(=O)C1c2cc(C#N)ccc2C(=O)N1Cc1ccccc1-c1ccccc1 (racemic) | 4.7 | > 100 µL/min/mg | > 33 µM | 3.3 µM | – | –
CC(C)(C)NC(=O)C1c2ccccc2C(=O)N1Cc1ccc(F)cc1-c1ccccc1 (single isomer, unassigned; enantiomer 1) | 5.2 | 58 µL/min/mg | > 33 µM | 0.8 µM | – | Activity [4]: 0.054 µM
CC(C)(C)NC(=O)C1c2ccccc2C(=O)N1Cc1cc(F)ccc1-c1ccc(F)cc1 (single isomer, unassigned; enantiomer 1) | 5.3 | 49 µL/min/mg | > 33 µM | 2 µM | – | Activity [4]: 0.055 µM
CC(C)(CN1C(=O)c2ccccc2C1C(=O)NCC(F)F)c1ccc(F)cc1 (centres undefined) | 3.7 | < 12 µL/min/mg | – | 1.2 µM | – | Activity [4]: 1.6 µM
Cc1c(O)ccc2c1C(=O)N(Cc1ccccc1-c1ccc(F)cc1)C2C(=O)NC(C)(C)C (centres undefined) | 4.5 | < 12 µL/min/mg | > 32 µM | 2.7 µM | – | –
CCCCNC(=O)C1c2ccccc2C(=O)N1CC(C)c1ccc(Cl)cc1 (racemic) | 4.5 | > 100 µL/min/mg | 32 µM | 1.1 µM | 0.7 µM | –
CC(C)(C)NC(=O)C1c2ccc(C#N)cc2C(=O)N1Cc1ccccc1-c1ccccc1 (racemic) | 4.7 | > 100 µL/min/mg | – | – | 37 µM | –
CC(C)(C)NC(=O)C1c2c(O)cccc2C(=O)N1Cc1ccccc1-c1ccccc1 (racemic) | 4.6 | > 100 µL/min/mg | 28 µM | 2.1 µM | – | –
Cc1c(O)ccc2c1C(=O)N(Cc1ccccc1-c1ccc(F)c(F)c1)C2C(=O)NC(C)(C)C (centres undefined) | 4.6 | < 12 µL/min/mg | – | 3.5 µM | – | –
CC(C)(CN1C(=O)c2ccccc2C1C(=O)NCCCC(F)F)c1ccc(F)cc1 (centres undefined) | 4.1 | 23 µL/min/mg | – | 0.6 µM | – | –
CC(C)(C)NC(=O)C1c2ccccc2C(=O)N1Cc1ccccc1-c1ccccc1 (single isomer, unassigned; enantiomer 1) | – | – | > 33 µM | – | – | –
O=C(NCc1ccncc1)C1c2ccccc2C(=O)N1Cc1ccccc1-c1ccccc1 (racemic) | – | > 100 µL/min/mg | > 33 µM | – | 13 µM | –

SMILES | logD ([1]; read-out: logD) | microsomal CLint [2] | IC50 [3] | IC50 [5] | IC50 [13] | also measured
CC(C)(CN1C(=O)c2ccccc2C1C(=O)NCCCF)c1ccc(Cl)cc1 (stereo in doubt; 23) | – | – | – | 0.5 µM | – | Activity [4]: 1.3 µM; logD [1]: 4; CLH [6]: < 12 µL/min/mg
Cc1c(O)ccc2c1C(=O)N(Cc1ccccc1-c1ccccc1)C2C(=O)NC(C)(C)C (racemic) | 4.4 | < 12 µL/min/mg | 46 µM | 2 µM | 3.2 µM | –
CC(C)(C)NC(=O)C1c2ccccc2C(=O)N1Cc1ccccc1-c1ccc(F)c(F)c1 (stereo in doubt; 16E1) | 5 | – | > 33 µM | 1.5 µM | – | Activity [4]: 0.066 µM; CLH [6]: 38 µL/min/mg
Cc1c(OCF)ccc2c1C(=O)N(Cc1ccccc1-c1ccccc1)C2C(=O)NC(C)(C)C (racemic) | 5.6 | > 100 µL/min/mg | – | 1.3 µM | – | –
COc1ccc2c(c1)C(=O)N(Cc1ccccc1-c1ccccc1)C2C(=O)NC(C)(C)C (racemic) | 4.9 | > 100 µL/min/mg | 30 µM | – | 11.3 µM | –
CCCCNC(=O)C1c2ccccc2C(=O)N1CC(C)c1ccc(F)cc1 (racemic) | 4.1 | 180 µL/min/mg | – | 0.9 µM | – | –
Cc1c(NS(C)(=O)=O)ccc2c1C(=O)N(Cc1ccccc1-c1ccccc1)C2C(=O)NC(C)(C)C (racemic) | 4.3 | 88 µL/min/mg | > 33 µM | 4.5 µM | 31 µM | –
CC(C)(C)NC(=O)C1c2ccccc2C(=O)N1Cc1ccc(F)cc1-c1ccc(F)cc1 (centres undefined) | 5 | 34 µL/min/mg | > 33 µM | 1.4 µM | – | Activity [4]: 0.9 µM
Cc1c(OC(F)F)ccc2c1C(=O)N(Cc1ccccc1-c1ccccc1)C2C(=O)NC(C)(C)C (racemic) | 5.9 | > 100 µL/min/mg | 22 µM | – | 1.2 µM | –
CCCNC(=O)C1c2ccccc2C(=O)N1CC(C)c1ccc(Cl)cc1 (single isomer, unassigned; isomer 2) | – | – | – | 0.7 µM | – | Activity [4]: 0.4 µM; logD [1]: 3.9; CLH [6]: 183 µL/min/mg
CC(C)(C)NC(=O)C1c2ccc(O)cc2C(=O)N1Cc1ccccc1-c1ccccc1 (racemic) | 4 | > 100 µL/min/mg | 45 µM | 6.9 µM | 8.4 µM | –
CC(C)(C)NC(=O)C1c2ccccc2C(=O)N1Cc1ccc(F)cc1-c1ccccc1 (single isomer, unassigned) | – | – | > 32 µM | 1.7 µM | – | CLH [6]: 62 µL/min/mg
CC(CN1C(=O)c2ccccc2C1C(=O)NCC(F)F)c1ccc(Cl)cc1 (racemic) | 3.7 | 73 µL/min/mg | – | 1.2 µM | – | –
CC(C)(C)NC(=O)C1c2cc(Cl)ccc2C(=O)N1C(c1cccnc1)c1cccnc1 (racemic) | – | 62 µL/min/mg | – | – | > 32 µM | –
CC(C)(C)NC(=O)C1c2ccc(NS(C)(=O)=O)cc2C(=O)N1Cc1ccccc1-c1ccccc1 (racemic) | 4 | 59 µL/min/mg | 15 µM | 7.6 µM | 17 µM | –
Cc1c(O)ccc2c1C(=O)N(Cc1ccccc1-c1ccccc1)C2C(=O)NC(C)(C)C (single isomer, unassigned; enantiomer 2) | – | – | 26 µM | 3.4 µM | 17 µM | CLH [6]: 24 µL/min/mg
Cc1c(O)ccc2c1C(=O)N(Cc1ccccc1-c1ccccc1)C2C(=O)NC(C)(C)C (single isomer, unassigned) | – | – | > 32 µM | 1.3 µM | 1.1 µM | CLH [6]: 20 µL/min/mg
CC(C)(C)NC(=O)C1c2ccccc2C(=O)N1Cc1ccccc1-c1ccccc1 (racemic) | 4.7 | > 100 µL/min/mg | 62 µM | – | – | –
CC(c1ccccc1)N1C(=O)c2ccccc2C1C(=O)NC(C)(C)CO (racemic) | – | 34 µL/min/mg | > 33 µM | > 10 µM | > 32 µM | –
CC(C)(C)NC(=O)C1c2ccccc2C(=O)N1Cc1ccccc1-c1ccc(F)c(F)c1 (single isomer, unassigned; enantiomer 2) | – | – | > 31 µM | 1.1 µM | – | CLH [6]: 103 µL/min/mg
CCCNC(=O)C1c2ccccc2C(=O)N1CC(C)c1ccc(Cl)cc1 (single isomer, unassigned; isomer 1) | 4.2 | 99 µL/min/mg | – | 0.4 µM | – | Activity [4]: 0.5 µM; IC50 [8]: > 50 µM; bioavailability [9]: 63%; bioavailability [10]: 81%; clearance [11]: 7.8 mL/min/kg; solubility [14]: 21 µM (≈ 7.79 µg/mL); clearance [12]: 6 mL/min/kg
CC(C)(C)NC(=O)C1c2ccccc2C(=O)N1Cc1cc(F)ccc1-c1ccccc1 (single isomer, unassigned; enantiomer 2) | – | – | > 33 µM | 1.6 µM | – | CLH [6]: 96 µL/min/mg
